Laboratory results reported in patent US11078198B2 (BRISTOL-MYERS SQUIBB COMPANY, priority 2017, dated 2021).

Target: T1, human FXR (Homo sapiens, UniProt Q96RI1)
T1 construct: expressed in transfected cells; host or cells: HEK293 cells stably carrying a 5xGal4-response-element firefly luciferase reporter, transiently transfected with pcDNA3.1-Gal4-FXR
T1 sequence (Q96RI1 262-486 limits assumed): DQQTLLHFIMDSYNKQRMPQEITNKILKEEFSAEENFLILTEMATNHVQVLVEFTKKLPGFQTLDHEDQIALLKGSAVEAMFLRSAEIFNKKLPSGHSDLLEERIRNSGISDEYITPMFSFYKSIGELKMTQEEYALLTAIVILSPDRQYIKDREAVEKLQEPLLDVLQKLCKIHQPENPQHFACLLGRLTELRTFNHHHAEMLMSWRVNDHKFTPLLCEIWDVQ
Assay: transient human FXR/Gal4-luciferase reporter assay
Assay type: cell-based
Settings: Gal4-hFXR transfected HEK293 reporter cells; relative to 8 μM GW-4064
Summary of the method: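 Transient Gal4-hFXR LBD fusion (pcDNA3.1, Lipofectamine, overnight) expressed in a HEK293 reporter line stably bearing five Gal4 elements upstream of firefly luciferase, grown in charcoal/dextran-stripped FBS. Compound dilutions in DMSO incubated with cells overnight at 37° C, 5% CO2, before luciferase readout.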

| SMILES | EC50 [nM] |
| --- | --- |
| CC(C)Oc1cc(C(=O)O)nc2ccc(N3CCC4(C=C(c5c(-c6c(Cl)cncc6Cl)noc5C5CC5)C4)CC3)cc12 [Example 111, 6-(2-(5-Cyclopropyl-3-(3,5-dichloropyridin-4-yl)isoxazol-4-yl)-7-azaspiro[3.5]non-1-en-7-yl)-4-isopropoxyquinoline-2-carboxylic acid] | 47 |
| COc1cc(C(=O)O)nc2ccc(N3CCC4(C=C(c5c(-c6c(Cl)cc(F)cc6Cl)noc5C5CC5)C4)CC3)cc12 [Example 112, 6-(2-(5-Cyclopropyl-3-(2,6-dichloro-4-fluorophenyl)isoxazol-4-yl)-7-azaspiro[3.5]non-1-en-7-yl)-4-methoxyquinoline-2-carboxylic acid] | 54 |
| CCOc1cc(C(=O)O)nc2ccc(N3CCC4(C=C(c5c(-c6ccccc6OC(F)(F)F)noc5C5CC5)C4)CC3)cc12 [Example 113, 6-(2-(5-Cyclopropyl-3-(2-(trifluoromethoxy)phenyl)isoxazol-4-yl)-7-azaspiro[3.5]non-1-en-7-yl)-4-ethoxyquinoline-2-carboxylic acid] | 116 |
| O=C(O)c1ccc2nc(N3CCC4(C=C(c5c(-c6c(Cl)cccc6Cl)noc5C5CC5)C4)CC3)oc2c1 [Example 114, 2-(2-(5-Cyclopropyl-3-(2,6-dichlorophenyl)isoxazol-4-yl)-7-azaspiro[3.5]non-1-en-7-yl)benzo[d]oxazole-6-carboxylic acid] | 127 |
| Cn1nc(C(=O)O)c2ccc(N3CCC4(C=C(c5c(-c6c(Cl)cccc6Cl)noc5C5CC5)C4)CC3)cc21 [Example 125, 6-(2-(5-Cyclopropyl-3-(2,6-dichlorophenyl)isoxazol-4-yl)-7-azaspiro[3.5]non-1-en-7-yl)-1-methyl-1H-indazole-3-carboxylic acid] | 96 |
| Cc1nc(C(=O)O)c2ccc(N3CCC4(C=C(c5c(-c6c(Cl)cccc6Cl)noc5C5CC5)C4)CC3)cn12 [Example 127, 6-(2-(5-Cyclopropyl-3-(2,6-dichlorophenyl)isoxazol-4-yl)-7-azaspiro[3.5]non-1-en-7-yl)-3-methylimidazo[1,5-a]pyridine-1-carboxylic acid] | 267 |
| Cn1c(C(=O)O)cc2ccc(N3CCC4(C=C(c5c(-c6c(Cl)cccc6Cl)noc5C5CC5)C4)CC3)cc21 [Example 128, 6-(2-(5-Cyclopropyl-3-(2,6-dichlorophenyl)isoxazol-4-yl)-7-azaspiro[3.5]non-1-en-7-yl)-1-methyl-1H-indole-2-carboxylic acid] | 287 |
| O=C(O)c1cc2ccc(N3CCC4(C=C(c5c(-c6c(Cl)cccc6Cl)noc5C5CC5)C4)CC3)cc2cn1 [Example 129, 7-(2-(5-Cyclopropyl-3-(2,6-dichlorophenyl)isoxazol-4-yl)-7-azaspiro[3.5]non-1-en-7-yl)isoquinoline-3-carboxylic acid] | 341 |
| O=C(O)COc1cnc2ccc(N3CCC4(C=C(c5c(-c6c(Cl)cccc6Cl)noc5C5CC5)C4)CC3)cc2n1 [Example 130, 2-((7-(2-(5-Cyclopropyl-3-(2,6-dichlorophenyl)isoxazol-4-yl)-7-azaspiro[3.5]non-1-en-7-yl)quinoxalin-2-yl)oxy)acetic acid] | 373 |
| C[Si](C)(C)CCOCn1cc(C(=O)O)c2ccc(N3CCC4(C=C(c5c(-c6c(Cl)cccc6Cl)noc5C5CC5)C4)CC3)cc21 [Example 131, 6-(2-(5-Cyclopropyl-3-(2,6-dichlorophenyl)isoxazol-4-yl)-7-azaspiro[3.5]non-1-en-7-yl)-1-((2-(trimethylsilyl)ethoxy)methyl)-1H-indole-3-carboxylic acid] | 445 |
| Cn1nc(N2CCC3(C=C(c4c(-c5c(Cl)cccc5Cl)noc4C4CC4)C3)CC2)c2ccc(C(=O)O)cc21 [Example 133, 3-(2-(5-Cyclopropyl-3-(2,6-dichlorophenyl)isoxazol-4-yl)-7-azaspiro[3.5]non-1-en-7-yl)-1-methyl-1H-indazole-6-carboxylic acid] | 1170 |
| Cn1nc(N2CCC3(C=C(c4c(-c5ccccc5C(F)(F)F)noc4C4CC4)C3)CC2)c2ccc(C(=O)O)cc21 [Example 134, 3-(2-(5-Cyclopropyl-3-(2-(trifluoromethyl)phenyl)isoxazol-4-yl)-7-azaspiro[3.5]non-1-en-7-yl)-1-methyl-1H-indazole-6-carboxylic acid] | 3310 |
| O=C(O)c1ccn2nc(N3CCC4(C=C(c5c(-c6ccccc6C(F)(F)F)noc5C5CC5)C4)CC3)ncc12 [Example 135, 2-(2-(5-Cyclopropyl-3-(2-(trifluoromethyl)phenyl)isoxazol-4-yl)-7-azaspiro[3.5]non-1-en-7-yl)pyrrolo[2,1-f][1,2,4]triazine-5-carboxylic acid] | 87 |
| O=C(O)c1cc(F)c2nc(N3CCC4(C=C(c5c(-c6c(F)cccc6Cl)noc5C5CC5)C4)CC3)sc2c1 [Example 136, 2-(2-(3-(2-Chloro-6-fluorophenyl)-5-cyclopropylisoxazol-4-yl)-7-azaspiro[3.5]non-1-en-7-yl)-4-fluorobenzo[d]thiazole-6-carboxylic acid] | 37 |
| O=C(O)c1cc(F)c2nc(N3CCC4(C=C(c5c(-c6c(F)cccc6F)noc5C5CC5)C4)CC3)sc2c1 [Example 137, 2-(2-(5-Cyclopropyl-3-(2,6-difluorophenyl)isoxazol-4-yl)-7-azaspiro[3.5]non-1-en-7-yl)-4-fluorobenzo[d]thiazole-6-carboxylic acid] | 155 |

Further lines, results first:

| EC50 [nM] | SMILES |
| --- | --- |
| 132 | Cc1cc(N2CCC3(C=C(c4c(-c5c(Cl)cccc5Cl)noc4C4CC4)C3)CC2)ncc1C(=O)O [Example 115, 6-(2-(5-Cyclopropyl-3-(2,6-dichlorophenyl)isoxazol-4-yl)-7-azaspiro[3.5]non-1-en-7-yl)-4-methylnicotinic acid] |
| 135 | O=C(O)c1cnc(N2CCC3(C=C(c4c(-c5c(Cl)cccc5Cl)noc4C4CC4)C3)CC2)cc1C(F)(F)F [Example 116, 6-(2-(5-Cyclopropyl-3-(2,6-dichlorophenyl)isoxazol-4-yl)-7-azaspiro[3.5]non-1-en-7-yl)-4-(trifluoromethyl)nicotinic acid] |
| 139 | Cn1cc(C(=O)O)c2cnc(N3CCC4(C=C(c5c(-c6c(Cl)cccc6Cl)noc5C5CC5)C4)CC3)cc21 [Example 117, 6-(2-(5-Cyclopropyl-3-(2,6-dichlorophenyl)isoxazol-4-yl)-7-azaspiro[3.5]non-1-en-7-yl)-1-methyl-1H-pyrrolo[3,2-c]pyridine-3-carboxylic acid] |
| 171 | O=C(O)c1cnc(N2CCC3(C=C(c4c(-c5c(Cl)cccc5Cl)noc4C4CC4)C3)CC2)nc1 [Example 118, 2-(2-(5-Cyclopropyl-3-(2,6-dichlorophenyl)isoxazol-4-yl)-7-azaspiro[3.5]non-1-en-7-yl)pyrimidine-5-carboxylic acid] |
| 316 | O=C(O)c1cnc(N2CCC3(C=C(c4c(-c5c(Cl)cccc5Cl)noc4C4CC4)C3)CC2)nc1C(F)(F)F [Example 119, 2-(2-(5-Cyclopropyl-3-(2,6-dichlorophenyl)isoxazol-4-yl)-7-azaspiro[3.5]non-1-en-7-yl)-4-(trifluoromethyl)pyrimidine-5-carboxylic acid] |
| 1390 | Cc1cc(C(=O)O)nc(N2CCC3(C=C(c4c(-c5c(Cl)cccc5Cl)noc4C4CC4)C3)CC2)n1 [Example 120, 2-(2-(5-Cyclopropyl-3-(2,6-dichlorophenyl)isoxazol-4-yl)-7-azaspiro[3.5]non-1-en-7-yl)-6-methylpyrimidine-4-carboxylic acid] |
| 2590 | Cc1cc(C(=O)O)cnc1N1CCC2(C=C(c3c(-c4c(Cl)cccc4Cl)noc3C3CC3)C2)CC1 [Example 121, 6-(2-(5-Cyclopropyl-3-(2,6-dichlorophenyl)isoxazol-4-yl)-7-azaspiro[3.5]non-1-en-7-yl)-5-methylnicotinic acid] |
| 40 | O=C(O)c1ccc2nc(N3CCC4(C=C(c5c(-c6c(Cl)cccc6Cl)noc5C5CC5)C4)CC3)ccc2c1 [Example 122, 2-(2-(5-Cyclopropyl-3-(2,6-dichlorophenyl)isoxazol-4-yl)-7-azaspiro[3.5]non-1-en-7-yl)quinoline-6-carboxylic acid] |
| 40 | O=C(O)c1ccn2nc(N3CCC4(C=C(c5c(-c6c(Cl)cccc6Cl)noc5C5CC5)C4)CC3)ncc12 [Example 123, 2-(2-(5-Cyclopropyl-3-(2,6-dichlorophenyl)isoxazol-4-yl)-7-azaspiro[3.5]non-1-en-7-yl)pyrrolo[2,1-f][1,2,4]triazine-5-carboxylic acid] |
| 78 | Cc1nc(N2CCC3(C=C(c4c(-c5c(Cl)cccc5Cl)noc4C4CC4)C3)CC2)ccc1C(=O)O [Example 124, 6-(2-(5-Cyclopropyl-3-(2,6-dichlorophenyl)isoxazol-4-yl)-7-azaspiro[3.5]non-1-en-7-yl)-2-methylnicotinic acid] |
| 102 | O=C(O)c1nc(C(F)(F)F)n2cc(N3CCC4(C=C(c5c(-c6c(Cl)cccc6Cl)noc5C5CC5)C4)CC3)ccc12 [Example 126, 6-(2-(5-Cyclopropyl-3-(2,6-dichlorophenyl)isoxazol-4-yl)-7-azaspiro[3.5]non-1-en-7-yl)-3-(trifluoromethyl)imidazo[1,5-a]pyridine-1-carboxylic acid] |
| 958 | Cc1c(N2CCC3(C=C(c4c(-c5c(Cl)cccc5Cl)noc4C4CC4)C3)CC2)ccc2cc(C(=O)O)cnc12 [Example 132, 7-(2-(5-Cyclopropyl-3-(2,6-dichlorophenyl)isoxazol-4-yl)-7-azaspiro[3.5]non-1-en-7-yl)-8-methylquinoline-3-carboxylic acid] |
